Results published in patent US20020015943A1, “Assays, methods and means relating to the modulation of levels of nuclear beta-catenin” (priority 2000, published 2002).
Entries after “also recorded” stand apart in the source; their conditions may differ.

B1: HC: central fragment from human APC (codons 1379-2080) N-terminally tagged with GFP, expressed by transfection (protein, UniProt P25054 1379-2080, looked up, fragment)
chain: ETPLMFSRCTSVSSLDSFESRSIASSVQSEPCSGMVSGIISPSDLPDSPGQTMPPSRSKTPPPPPQTAQTKREVPKNKAPTAEKRESGPKQAAVNAAVQRVQVLPDADTLLHFATESTPDGFSCSSSLSALSLDEPFIQKDVELRIMPPVQENDNGNETESEQPKESNENQEKEAEKTIDSEKDLLDDSDDDDIEILEECIISAMPTKSSRKAKKPAQTASKLPPPVARKPSQLPVYKLLPSQNRLQPQKHVSFTPGDDMPRVYCVEGTPINFSTATSLSDLTIESPPNELAAGEGVRGGAQSGEFEKRDTIPTEGRSTDEAQGGKTSSVTIPELDDNKAEEGDILAECINSAMPKGKSHKPFRVKKIMDQVQQASASSSAPNKNQLDGKKKKPTSPVKPIPQNTEYRTRVRKNADSKNNLNAERVFSDNKDSKKQNLKNNSKVFNDKLPNNEDRVRGSFAFDSPHHYTPIEGTPYCFSRNDSLSSLDFDDDDVDLSREKAELRKAKENKESEAKVTSHTELTSNQQSANKTQAIAKQPINRGQPKPILQKQSTFPQSSKDIPDRGAATDEKLQNFAIENTPVCFSHNSSLSSLSDIDQENNNKENEPIKETEPPDSQGEPSKPQASGYAPKSFHVEDTPVCFSRNSSLSSLSIDSEDDLLQECISSAMPKKKKPSRLKGDNEKHSPRNMGGILGEDLTLDL
modifications: N-terminal GFP tag
notes: central fragment from human APC (codons 1379-2080) N-terminally tagged with GFP, expressed by transfection

What was measured:
[1] = target: T1, nuclear export receptor CRM1 (Drosophila melanogaster, UniProt Q9TVM2); experiment: Endogenous E-APC localisation in LMB-treated permeabilised Drosophila embryos; format: cell-based; settings: 80 ng/ml LMB 60 min
T1 construct: 0-6 hours old embryos were permeabilised in octane; from tissue; host or cells: octane-permeabilised Drosophila embryos, 0-6 hours old
T1 sequence (Q9TVM2 whole entry): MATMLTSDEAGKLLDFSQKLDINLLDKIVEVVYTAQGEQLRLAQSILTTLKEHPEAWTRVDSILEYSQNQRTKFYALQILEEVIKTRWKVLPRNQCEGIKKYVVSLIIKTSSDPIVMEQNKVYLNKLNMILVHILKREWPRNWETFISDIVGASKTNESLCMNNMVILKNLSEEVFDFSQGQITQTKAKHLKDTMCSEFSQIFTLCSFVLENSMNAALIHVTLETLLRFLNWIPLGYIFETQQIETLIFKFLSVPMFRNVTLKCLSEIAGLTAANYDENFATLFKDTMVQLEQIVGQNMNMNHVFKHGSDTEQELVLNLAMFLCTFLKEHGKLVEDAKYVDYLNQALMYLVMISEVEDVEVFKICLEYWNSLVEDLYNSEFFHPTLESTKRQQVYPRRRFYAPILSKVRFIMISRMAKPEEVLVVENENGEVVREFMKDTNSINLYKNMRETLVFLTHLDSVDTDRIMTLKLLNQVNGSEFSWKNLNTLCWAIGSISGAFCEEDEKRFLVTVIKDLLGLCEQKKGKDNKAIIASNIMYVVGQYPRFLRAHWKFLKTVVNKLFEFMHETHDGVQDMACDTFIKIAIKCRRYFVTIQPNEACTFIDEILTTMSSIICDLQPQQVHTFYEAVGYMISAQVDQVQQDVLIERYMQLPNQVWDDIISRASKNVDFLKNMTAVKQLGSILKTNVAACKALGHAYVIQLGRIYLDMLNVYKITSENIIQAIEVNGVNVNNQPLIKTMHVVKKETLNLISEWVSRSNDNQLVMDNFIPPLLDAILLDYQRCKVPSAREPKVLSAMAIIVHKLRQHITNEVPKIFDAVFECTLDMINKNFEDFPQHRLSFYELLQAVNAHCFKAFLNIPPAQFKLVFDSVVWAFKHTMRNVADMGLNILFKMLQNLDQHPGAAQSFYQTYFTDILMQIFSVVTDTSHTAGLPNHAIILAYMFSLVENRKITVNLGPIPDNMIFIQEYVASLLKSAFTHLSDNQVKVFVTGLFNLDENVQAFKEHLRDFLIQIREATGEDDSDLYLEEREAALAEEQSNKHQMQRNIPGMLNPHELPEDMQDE
Method: Drosophila embryos were fixed and stained as described (Yu, X. et al. Nature Cell Biol 3, 144-151 (1999)). For drug treatments, 0-6 hours old embryos were permeabilised in octane (Lantz, V. A. et al. Mech Dev 85, 111-122 (1999)) and subsequently incubated for 60 min. with 80 ng/ml LMB. Controls were octane-permeabilised and incubated in solvent alone (<1% ethanol).
The following antibodies were used: rabbit anti-E-APC (1:10′000) (Yu, X. et al. Nature Cell Biol 3, 144-151 (1999), rabbit anti-APC (1:700) (Näthke, I. S. et al. J Cell Biol 134, 165-179 (1996)), mouse anti-lamin (1:150), mouse anti-β-catenin (1:500; Transduction Laboratories), Alexa Red and Green (1:500; Molecular Probes). images were collected on an MRC 1024 confocal microscope.

[2] = test system: nuclear export receptor CRM1; experiment: Subcellular distribution of GFP-tagged APC constructs in transfected COS cells with or without LMB; format: cell-based, monkey
From the text: All constructs were inserted into pEGFP-C2 (Clontech), producing N-terminally tagged GFP fusions. Each construct (except HC and HCala, see below) also contains a triple hemagglutinin (HA) tag inserted between GFP and APC coding sequence. In coreNES, the following NES-encoding sequences were inserted between the HA tag and the ARDcore (first of a pair human, second Drosophila, bold NES residues were substituted to alanine in coreNESala; in coreNEScon, underlined conserved non-NES residues were substituted by alanine): 203, […], […]; 20R4, […], […]; 20R7, […]. coreNESmin from Drosophila 20R4 contains […] (bold residues substituted by alanine in the mutant version). […] For the complementation assays in SW480 cells, a central fragment from human APC (codons 1379-2080) was N-terminally tagged with GFP (HC, see above). The above described alanine substitutions of 20R-linked NESs were introduced into HC, and into GFP-E-APC, using the Quik-Change Site-Directed Mutagenesis Kit (Stratagene), HCala1 and HCala2 are partial mutants retaining one and two NESs, respectively (see text) All constructs were verified by sequencing.
Monkey COS cells were grown in DMEM medium (supplemented with 10% fetal calf serum), and transfected with FuGENE™ (Morin, P. J. et al. Science 275, 1787-1790 (1997)) Transfection Reagent (Roche). SW480 and HCT116 cells were grown in Leibovitz's L15 medium (with 10% fetal calf serum), and transfected with Lipofectamine (Life Technologies Inc.). 0.4 or […] DNA was used per transfection of COS or SW480 cells (in 35 mm culture wells), respectively. Transfected cells were harvested for analysis after 24-48 hours. For staining, cells were either fixed with chilled methanol for 10 min. at −20° C. or fixed with 4% paraformaldehyde (freshly prepared, in phosphate buffered saline) for 30 min. Cells were then permeabilised with 0.1% Triton X-100 and blocked with bovine serum albumin for 15 min. each, and subsequently incubated at room temperature with primary and secondary antibody for 60 and 30 min, respectively. COS cells were treated with LMB (50 ng/ml)) for 1-2 hours 24 hours after transfection, SW480 cells for 2 hours 48 hours after transfection.
(§1) Qualitative analysis was thus backed up by quantitative evaluation of 10-20 randomly chosen fields in which each individual healthy cell was scored. Ratios of nuclear to cytoplasmic fluorescence levels were determined.

[3] = test system: nuclear β-catenin in SW480 cells; experiment: Complementation assay in transfected SW480 cells, immunofluorescence of APC construct and β-catenin; format: cell-based
From the text: All constructs were inserted into pEGFP-C2 (Clontech), producing N-terminally tagged GFP fusions. Each construct (except HC and HCala, see below) also contains a triple hemagglutinin (HA) tag inserted between GFP and APC coding sequence. In coreNES, the following NES-encoding sequences were inserted between the HA tag and the ARDcore (first of a pair human, second Drosophila, bold NES residues were substituted to alanine in coreNESala; in coreNEScon, underlined conserved non-NES residues were substituted by alanine): 203, […], […]; 20R4, […], […]; 20R7, […]. coreNESmin from Drosophila 20R4 contains ISGLSHLTVGSA (bold residues substituted by alanine in the mutant version). We also fused the putative NES from Drosophila pseudoR20 (FIG. 1, arrowhead) to ARDcore, but this NES candidate ([…]) was non-functional. For the complementation assays in SW480 cells, a central fragment from human APC (codons 1379-2080) was N-terminally tagged with GFP (HC, see above). The above described alanine substitutions of 20R-linked NESs were introduced into HC, and into GFP-E-APC, using the Quik-Change Site-Directed Mutagenesis Kit (Stratagene), HCala1 and HCala2 are partial mutants retaining one and two NESs, respectively (see text) All constructs were verified by sequencing.
Monkey COS cells were grown in DMEM medium (supplemented with 10% fetal calf serum), and transfected with FuGENE™ (Morin, P. J. et al. Science 275, 1787-1790 (1997)) Transfection Reagent (Roche). SW480 and HCT116 cells were grown in Leibovitz's L15 medium (with 10% fetal calf serum), and transfected with Lipofectamine (Life Technologies Inc.). 0.4 or […] DNA was used per transfection of COS or SW480 cells (in 35 mm culture wells), respectively. Transfected cells were harvested for analysis after 24-48 hours. […]
as §1

nuclear β-catenin = experiment: TOPFLASH/FOPFLASH luciferase transcriptional read-out of nuclear β-catenin in SW480 cells; format: cell-based; settings: TOPFLASH, versus mock-transfected
Method: pTOPFLASH and pFOPFLASH were used for transcriptional read-out assays of nuclear β-catenin in SW480 cells (Korinek, V. et al. Science 275, 1784-1787 (1997)). pRL-CMV served as an internal control, and luciferase assays were performed with the Dual Luciferase™ Reporter Assay System (Promega). Relative luciferase activities (x100) were obtained by dividing TOP- or FOP-FLASH values by pRL-CMV values (FIG. 3). TOP-FLASH values reflect averages of 2-4 independent transfections, their standard deviations are given.

[4] = HC-transfected SW480 cells, LMB 2 hours

| Molecule | effect on localisation of endogenous E-APC [1] | effect on nuclear exclusion / distribution of Cterm1 and Cterm2 ([2]; LMB 50 ng/ml 1-2 hours) | effect on nuclear exclusion of coreNES fusions ([2]; LMB 50 ng/ml 1-2 hours) | effect on subcellular distribution of ARDcore and coreNESala mutants ([2]; LMB 50 ng/ml 1-2 hours) | effect on distribution of full-length E-APC ([2]; LMB treatment (not shown)) | effect on localisation of HC [3, 4] | effect on reduction of nuclear β-catenin by HC [3, 4] | reduction of luciferase activity (transcriptional activity of nuclear β-catenin) (nuclear β-catenin) | reduction of nuclear β-catenin by transfected construct ([3]; transfected SW480 cells, immunofluorescence) |
| --- | --- | --- | --- | --- | --- | --- | --- | --- | --- |
| CCC(=C/[C@H](C)C/C=C/C(C)=C/[C@@H](C)C(=O)[C@@H](C)[C@H](O)[C@@H](C)C/C(C)=C/C(=O)O)/C=C/[C@@H]1OC(=O)C=C[C@@H]1C [LMB, leptomycin B] | E-APC was found to accumulate in the nuclei; also recorded: endogenous E-APC is retained efficiently in nuclei | blocked; also recorded: even distribution of Cterm1 and 2 throughout cytoplasm and nucleus | abolishes the nuclear exclusion of all coreNES fusions | neither affected | accumulated to some extent in the nucleus | caused nuclear retention of HC | attenuated the reduction of nuclear β-catenin by HC |  |  |
| B1 |  |  |  |  |  |  |  | much reduced | strongly reduced nuclear β-catenin |
